Converted amounts (≈) assume the structure as drawn. Where two headings read alike, the source gives them in different places.

Assay [1] deals with SF162R (resistant strains selected from SF162 against Example 1). The assay can be described thus: Acute infectivity assay in PHA-activated donor lymphocytes, resistant isolate SF162R. Format: cell-based, HIV-1. The note with it: Human immunodeficiency virus 1, Lymphocyte. As to the method: Approximately 3×10^7 cells are activated for 48 hours with about 3-5 μg/ml PHA in RPMI continuing 10% fetal bovine serum and IL-2 (10 U/ml). Quantitated virus stocks are added to the activated lymphocyte suspension at a multiplicity of infection of about 0.001-0.01. The cell-virus suspension is incubated at 37° C. for 2 hours to allow virus absorption. The residual virus inoculum is removed by centrifugation and the cells are resuspended in RPMI containing 10% FBS and 10 U/ml IL-2. These infected cells are added to the test-article diluted in complete tissue culture medium from a stock (10 mg/ml) in DMSO in 96 well microtiter plates to give about 5×10^5 cells per well per 200 μl. Infected, untreated cells and cells treated with DMSO alone (0.1%) or either AZT or DDI were used as controls. The cultures were examined for syncytia formation on days 7 and 11 post-infection or the supernants tested for reverse transcriptase activity or p24 antigen.
RF represents the HIV-1 strain HIV-LRF and RFR represents a mixture of resistant strains obtained by selection of RF against the compound of Example 1. RFR comprises a mixture of viral strains having protease genotypes of G48V (14/40 clones); G48V, V82A (18/40 clones); G48V, L90S (2/40 clones); G48V, 154T, V82A (1/40 clones); G48M (1/40 clones); G48V, Q61H (1/40 clones); V13I, G48V (1/40 clones); G48V, F53L, V82A (1/40 clones); and G48V, V82A, C95Y (1/40 clones). RFR2 represents a mixture of resistant strains obtained by cloning RFR by three rounds of growth at limiting dilution. RFR2 comprises a mixture of viral strains having protease genotypes of G48V, V82A (13/15 clones); G17E, G48V, V82A (1/15 clones); and G48V, V82A, N37D, N88D (1/15 clones). RFRR represents a mixture of resistant strains obtained by selection of RF against the compounds of Examples 1 and 2 and then cloning by three rounds of growth at limiting dilution. RFRR comprises a mixture of viral strains having protease genotypes of G48V, 154T, L63P, V82A (7/9 clones); G48V, 154T, L63P, V82A, N88S (1/9 clones); and G48V, 154T, L63P, G73M, V82A (1/9 clones). SF162 represents the HIV-1 strain SF-162 and SF162R represents a mixture of resistant strains obtained by selection of SF162 against the compound of Example 1. SF162R comprises a mixture of viral strains having protease genotypes of M461, F53L, L63P, A71V, N88D (2/3 clones); and M46I, F53L, L63P, A71V, N88D, Q92R (1/3 clones). 89-959 represents the HIV-1 strain 89-959 and 89-959R represents a mixture of resistant strains obtained by selection of 89-959 against the compound of Example 2. 89-959R comprises a mixture of viral strains having protease genotypes of N88S (4/5 clones); and D25N, T26A, D30N, D37N, R41K, G73D, R87K, N88S (1/4 clones). NL4 represents the HIV-1 strain HIV-1NL4-3. NL4(G48V) represents a strain having a synthetically generated site-directed mutation in the protease from glycine to valine at amino acid position number 48. NL4(I84V) represents a strain having a synthetically generated site-directed mutation in the protease from isoleucine to valine at amino acid position number 84. NL4(R8Q,M46I) represents a strain having synthetically generated site-directed mutations in the protease from arginine to glutamine at amino acid position number 8 and methionine to isoleucine at amino acid position number 46. NL4(P22-538) represents a mixture of resistant strains obtained by selection of HIV-1NL4-3 against the compound of Example 10 after 22 passages comprising protease genotypes M46I, L63P, A71V, V82F, I84V (4/10); M46I, L63P, V82F, I84V (3/10); and M46I, A71V, V82F, I84V (3/10). NL4(P37-538) represents resistant strains obtained by selection of HIV-1NL4-3 against the compound of Example 10 after 37 passages comprising protease genotype M46I, L63P, A71V, 184A. NL4(538/524) represents resistant strains obtained by selection of NL4(P22-538) against the compound of Example 5 after 24 passages comprising protease genotype M46I, L63P, A71V, 184A. […]

A further assay deals with HIV-1NL4-3. The experiment in a line: microbe, parasite or virus in culture. Format: cell-based. To be noted: for EC50: Table 8, read-out: Virus Isolate (EC50 nM) NL4. From the text:
RF represents the HIV-1 strain HIV-LRF and RFR represents a mixture of resistant strains obtained by selection of RF against the compound of Example 1. […] RFR2 represents a mixture of resistant strains obtained by cloning RFR by three rounds of growth at limiting dilution. […] RFRR represents a mixture of resistant strains obtained by selection of RF against the compounds of Examples 1 and 2 and then cloning by three rounds of growth at limiting dilution. […] SF162 represents the HIV-1 strain SF-162 and SF162R represents a mixture of resistant strains obtained by selection of SF162 against the compound of Example 1. […] 89-959 represents the HIV-1 strain 89-959 and 89-959R represents a mixture of resistant strains obtained by selection of 89-959 against the compound of Example 2. […] NL4 represents the HIV-1 strain HIV-1NL4-3. NL4(G48V) represents a strain having a synthetically generated site-directed mutation in the protease from glycine to valine at amino acid position number 48. NL4(I84V) represents a strain having a synthetically generated site-directed mutation in the protease from isoleucine to valine at amino acid position number 84. NL4(R8Q,M46I) represents a strain having synthetically generated site-directed mutations in the protease from arginine to glutamine at amino acid position number 8 and methionine to isoleucine at amino acid position number 46.

Where [2] appears, read: Table 1, read-out: Virus Isolate (EC50 ng/mL) SF162R.
The mark [3] stands for this setting: Human immunodeficiency virus 1, NL4.
Where [4] appears, read: Table 2, read-out: Virus Isolate (EC50 ng/mL) SF162R.

Take `CC(C)(C)NC(=O)[C@@H]1CC2CCCC[C@@H]2CN1C[C@@H](O)[C@H](Cc1ccccc1)NC(=O)[C@H](CC(N)=O)NC(=O)c1ccc2ccccc2n1` (stereo in doubt) [Example 6, N-tert-Butyl decahydro-2-[2(R)-hydroxy-4-phenyl-3(S)-[[N-(2-quinolylcarbonyl)-L-asparaginyl]amino]butyl]-(4aR,8aS)-isoquinoline-3(S)-carboxamide]: the values for the EC50 (in assay [1] (setting [2]); in the assay with HIV-1NL4-3 (setting [3])) were 11 ng/mL (≈ 0.0164 µM) and 30 nM, respectively. Also, in the assay on HIV-1NL4-3 (Human immunodeficiency virus 1, Table 7, EC90, NL4, read-out: Virus Isolate (EC90 nM) NL4), the concentration for an effect of 90% (EC90) came to 30 nM. On to `CC(C)(C)NC(=O)[C@@H]1CN(Cc2cccnc2)CCN1C[C@@H](O)C[C@@H](Cc1ccccc1)C(=O)N[C@H]1c2ccccc2C[C@H]1O` [Example 5, N-(2(R)-Hydroxy-1(S)-indanyl)-2(R)-phenylmethyl-4(S)-hydroxy-5-(1-(4-(3-pyridylmethyl)-2(S)-N′-(t-butylcarboxamido)-piperazinyl))-pentaneamide], for which the EC90 in the assay on HIV-1NL4-3 (Human immunodeficiency virus 1, read-out: Virus Isolate (EC90 nM) NL4) was found to be 80 nM. In addition, the EC50 with HIV-1NL4-3 (setting [3]) was determined as 80 nM. On to `CNCC(=O)N[C@H](C(=O)N[C@@H](Cc1ccccc1)[C@H](O)CN(CCC(C)C)C(=O)NC(C)(C)C)C(C)(C)C` [Example 2, (2R,3S)-3-(N-methylaminoacetyl-L-tert-butylglycinyl)amino-1-(N-isoamyl-N-(tert-butylcarbamoyl))amino-4-phenyl-2-butanol], for which the EC50 in assay [1] (setting [2]) stood at 6 ng/mL (≈ 0.0112 µM). `CC(C)CN(C[C@@H](O)[C@H](Cc1ccccc1)NC(=O)[C@H](CC(N)=O)NC(=O)c1ccc2ccccc2n1)S(=O)(=O)NC(C)(C)C` [Example 8, N-[3-[N^2-[N^1-(1,1-dimethylethyl)aminosulfonyl]-N^2-(2-methylpropyl)amino]-2R-hydroxy-1S-(phenylmethyl)propyl]-2S-[(2-quinolinylcarbonyl)amino]butanediamide]: the EC50 in assay [1] (setting [4]) was determined as 98 ng/mL (≈ 0.153 µM). With `CC(C)CN(C[C@@H](O)[C@H](Cc1ccccc1)NC(=O)[C@H](CC(N)=O)NC(=O)c1ccc2ccccc2n1)C(=O)NC(C)(C)C` (relative stereo) [Example 1, [1S-[1R*(R*),2S*]]-N^1-[3-[[[(1,1-dimethylethyl)amino]carbonyl])2-methylpropyl)amino]-2-hydroxy-1-(phenylmethyl)propyl]-2-[(2-quinolinylcarbonyl)amino]-butanediamide], the EC50 in assay [1] (setting [2]) was determined as 443 ng/mL (≈ 0.733 µM); in assay [1] (setting [4]) it was 111 ng/mL (≈ 0.184 µM). Take `CC(C)CCN(C[C@@H](O)[C@H](Cc1ccccc1)NC(=O)[C@H](CC(N)=O)NC(=O)c1ccc2ccccc2n1)C(=O)NC(C)(C)C` (relative stereo) [Example 7, [1S-[1R*(R*),2S*]]-N^1-[3-[[[(1,1-dimethylethyl)amino]carbonyl](3-methylbutyl)amino]-2-hydroxy-1-(phenylmethyl)propyl]-2-[(2-quinolinylcarbonyl)amino]-butanediamide]: in assay [1] (setting [4]), the EC50 was found to be 108 ng/mL (≈ 0.175 µM).

Source of the values: patent publication US20030207813A1, “Retroviral protease inhibitor combinations” (priority 1995, published 2003).
